Reference: ChEMBL document CHEMBL5055682, “Relaxed Substrate Requirements of Sterol 14α-Demethylase from Naegleria fowleri Are Accompanied by Resistance to Inhibition” (J Med Chem, 2021)

What was measured:
[1] = Inhibition of Naegleria fowleri CYP51 catalytic activity using [3-3H]sterol substrate measured after 1 hr by RP-HPLC analysis
[2] = Binding affinity to Naegleria fowleri CYP51 expressed in Escherichia coli HMS-174 (DE3) assessed as dissociation constant by quadratic Morrison equation
Naegleria fowleri [3] = experiment: Substrate activity at Naegleria fowleri CYP51 expressed in Escherichia coli HMS-174 (DE3) assessed as Kcat by spectroscopy
[4] = Substrate activity at Naegleria fowleri CYP51 expressed in Escherichia coli HMS-174 (DE3) assessed as dissociation constant by Morrison equation
Naegleria fowleri [5] = experiment: Substrate activity at Naegleria fowleri CYP51 expressed in Escherichia coli HMS-174 (DE3) assessed as Kcat/Km by spectroscopy
Naegleria fowleri [6] = experiment: Substrate activity at Naegleria fowleri CYP51 expressed in Escherichia coli HMS-174 (DE3) assessed as Km by spectroscopy
[7] = Substrate activity at Naegleria fowleri CYP51 expressed in Escherichia coli HMS-174 (DE3) assessed as dissociation constant by Michaelis-Menten equation
[8] = Irreversible inhibitor of Trigo-noscuta cruzi CYP51
[9] = Irreversible inhibitor of Typho-chrestus brucei CYP51

For `C[C@@H](c1ncncc1F)[C@](O)(Cn1cncn1)c1ccc(F)cc1F` [VORICONAZOLE], the IC50 [1] was 3220 nM.
Compound `O=C(N[C@@H](Cn1ccnc1)c1c(F)cc(-c2ccc(F)cc2)cc1F)c1ccc(-c2nnc(-c3ccccc3)o2)cc1` has a Kd [2] of 7 nM and an IC50 [1] of 350 nM.
`CC(C)=CCC[C@@H](C)[C@H]1CC[C@@]2(C)C3=C(CC[C@]12C)[C@@]1(C)CC[C@H](O)C(C)(C)[C@@H]1CC3` [LANOSTEROL] gave a kcat (Naegleria fowleri [3]) of 1.07 s⁻¹, a Kd [4] of 28 nM and a kcat/Km (Naegleria fowleri [5]) of 21700 M⁻¹ s⁻¹. It also gave a Km (Naegleria fowleri [6]) of 48 µM.
With `CC(C)=CCC[C@@H](C)[C@H]1CC[C@@]2(C)C3=C(CC[C@]12C)[C@@]1(C)CC[C@H](O)[C@@H](C)[C@@H]1CC3` the Kd [4] was 271 nM.
`O=C(N[C@@H](Cn1ccnc1)c1ccc(Cl)cc1Cl)c1ccc(-c2nnc(-c3ccc(C(F)(F)F)c(F)c3)o2)cc1` gave a Kd [2] of 11 nM and an IC50 [1] of 930 nM.
For `CC[C@@H]([C@H](C)O)n1ncn(-c2ccc(N3CCN(c4ccc(OC[C@@H]5CO[C@@](Cn6cncn6)(c6ccc(F)cc6F)C5)cc4)CC3)cc2)c1=O` [POSACONAZOLE], the IC50 [1] was 690 nM.
`CCC(C)n1ncn(-c2ccc(N3CCN(c4ccc(OCC5COC(Cn6cncn6)(c6ccc(Cl)cc6Cl)O5)cc4)CC3)cc2)c1=O` (stereo not drawn) [ITRACONAZOLE] showed an IC50 [1] of 2050 nM.
For `C[C@@H](c1nc(-c2ccc(C#N)cc2)cs1)C(O)(Cn1cncn1)c1cc(F)ccc1F` (stereo partly drawn), the IC50 [1] was 900 nM.
In the case of `CC(C)=CCC[C@@H](C)[C@H]1CC[C@@]2(C)[C@@H]3CC[C@H]4C(C)(C)[C@@H](O)CC[C@@]45C[C@]35CC[C@]12C`, the Kd [7] is reported as 829 nM.
Compound `O=C(N[C@@H](Cn1ccnc1)c1ccc(Cl)cc1Cl)c1ccc(-c2nnc(-c3ccc(F)c(F)c3)o2)cc1` has a Kd [2] of 3 nM and an IC50 [1] of 1280 nM.
Work on `C=C(CC[C@@H](C)[C@H]1CC[C@@]2(C)C3=C(CC[C@]12C)[C@@]1(C)CC[C@H](O)[C@@H](C)[C@@H]1CC3)C(C)C` [OBTUSIFOLIOL] yielded a kcat (Naegleria fowleri [3]) of 0.433 s⁻¹, a Kd [4] of 23 nM and a kcat/Km (Naegleria fowleri [5]) of 53300 M⁻¹ s⁻¹. The Km (Naegleria fowleri [6]) was 8 µM.
`O=C(N[C@@H](Cn1ccnc1)c1ccc(-c2ccc(F)cc2)cc1Cl)c1ccc(-c2nnc(-c3ccccc3)o2)cc1` showed a Kd [2] of 25 nM and an IC50 [1] of 680 nM.
`O=C(N[C@@H](Cn1ccnc1)c1ccc(-c2ccc(F)cc2)cc1F)c1ccc(-c2nnc(-c3ccccc3)o2)cc1` gave a Kd [2] of 10 nM and an IC50 [1] of 5940 nM.
In the case of `O=C(N[C@@H](Cn1ccnc1)c1ccc(Cl)cc1Cl)c1ccc(-c2nnc(-c3ccccc3)o2)cc1`, the Kd [2] is reported as 5 nM, the IC50 [8] is reported as 5600 nM and the IC50 [9] is reported as 5600 nM.
For `CC(=O)N1CCN(c2ccc(OCC3COC(Cn4ccnc4)(c4ccc(Cl)cc4Cl)O3)cc2)CC1` (stereo not drawn) [KETOCONAZOLE], the Kd [2] was 5 nM.
